# How the values were obtained:
# [1] = tested on: collagen-degrading enzymes from human skin (basal cell carcinoma conditioned medium)
# Description: (§1) Collagen-degrading enzyme preparations. A collagenolytic enzyme preparation from Clostridium histolyticum (Collagenase type I; Worthington Biochemical Corp, Freehold, N.J.) was used to produce fragmentation of the collagen. […] The bacterial enzyme preparation cleaves intact collagen at numerous sites to produce low molecular weight fragments. Collagenolytic activity was quantified by exposing 1 mg of rat tail (monomeric) collagen to varying concentrations of enzyme preparation for 5 hours at 37° C. Intact collagen exposed to buffer alone served as control. At the end of the incubation period, the control collagen and enzyme-treated collagen were resolved on SDS-PAGE and stained with Coomassie brilliant blue. Laser densitometry was used to quantify α1(I) and α2(I) bands in the intact and digested preparations. […] Human basal cell carcinoma tissue was used as a source of collagen-degrading enzymes from human skin. Fresh tumor specimens obtained at surgery were cut into 2-mm pieces, and 6-8 tissue pieces incubated for 72 hours in 0.5 ml of Ca^2+-supplemented MCDB-153. Incubation was at 37° C. and 5% CO2. At the end of the incubation period, the culture fluid was obtained and used as the enzyme source.
# [2] = tested on: bacterial collagenase; conditions: gel exposed to bacterial collagenase plus 10 mM EDTA, EDTA then neutralized with Ca2+; FIG. 8B
# Description: as §1
# [3] = tested on: collagenolytic enzyme preparation from Clostridium histolyticum (Collagenase type I)
# Description: as §1
# [4] = molecular target: T1, MMP-2 (Homo sapiens, UniProt P08253); conditions: from Whittaker et al., Chem. Rev. 1999; cited from earlier work
# T1 sequence (P08253 110-660): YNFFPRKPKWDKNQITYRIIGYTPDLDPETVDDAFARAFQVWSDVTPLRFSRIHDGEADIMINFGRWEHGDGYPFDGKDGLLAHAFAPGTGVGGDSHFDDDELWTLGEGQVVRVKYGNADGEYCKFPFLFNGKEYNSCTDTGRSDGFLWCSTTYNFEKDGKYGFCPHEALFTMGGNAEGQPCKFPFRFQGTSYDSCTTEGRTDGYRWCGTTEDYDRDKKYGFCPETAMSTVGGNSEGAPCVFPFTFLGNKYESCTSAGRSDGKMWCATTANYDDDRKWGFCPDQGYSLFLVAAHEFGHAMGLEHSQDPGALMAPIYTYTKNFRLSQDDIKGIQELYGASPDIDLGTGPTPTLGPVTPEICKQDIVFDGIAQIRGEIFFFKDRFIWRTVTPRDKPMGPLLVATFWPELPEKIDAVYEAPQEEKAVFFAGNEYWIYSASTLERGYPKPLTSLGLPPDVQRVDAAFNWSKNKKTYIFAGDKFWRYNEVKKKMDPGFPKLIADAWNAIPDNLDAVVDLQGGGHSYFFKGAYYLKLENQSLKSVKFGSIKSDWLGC
# [5] = molecular target: MMP-9 (Homo sapiens, UniProt P14780); conditions: from Whittaker et al., Chem. Rev. 1999; cited from earlier work
# [6] = tested on: human skin collagenase; test: Fibroblast contraction of collagen gels treated with human skin collagenase; format: cell-based; conditions: gels treated with human skin collagenase in the presence of 10 μg of aprotinin; FIG. 8B
# Description: Preparation of polymerized collagen gels. […] During this period, the collagen formed a polymerized gel.
# Collagen-degrading enzyme preparations. […] Intact collagen exposed to buffer alone served as control. […] Incubation was at 37° C. and 5% CO2.
# Chain of MMP-9 (P14780 94-707): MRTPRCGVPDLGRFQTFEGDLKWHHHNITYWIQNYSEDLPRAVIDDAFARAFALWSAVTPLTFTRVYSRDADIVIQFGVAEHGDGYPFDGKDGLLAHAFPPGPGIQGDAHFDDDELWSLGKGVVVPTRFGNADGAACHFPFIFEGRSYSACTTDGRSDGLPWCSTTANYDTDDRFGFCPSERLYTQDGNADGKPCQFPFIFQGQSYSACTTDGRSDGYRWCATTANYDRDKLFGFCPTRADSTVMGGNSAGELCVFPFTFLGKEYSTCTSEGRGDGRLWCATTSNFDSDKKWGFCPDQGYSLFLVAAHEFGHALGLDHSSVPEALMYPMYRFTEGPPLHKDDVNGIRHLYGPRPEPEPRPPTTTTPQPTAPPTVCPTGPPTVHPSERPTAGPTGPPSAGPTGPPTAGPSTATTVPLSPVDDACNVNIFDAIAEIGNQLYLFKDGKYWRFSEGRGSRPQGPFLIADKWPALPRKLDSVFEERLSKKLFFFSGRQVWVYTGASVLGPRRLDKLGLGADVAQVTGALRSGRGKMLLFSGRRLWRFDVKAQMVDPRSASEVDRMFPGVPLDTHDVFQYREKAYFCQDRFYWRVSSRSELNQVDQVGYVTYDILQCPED
molecule,measurement,setting,value
"O=C(O)CN(CCN(CC(=O)O)CC(=O)O)CC(=O)O [EDTA, ethylene diamine tetraacetic acid]",zymographic activities,"[1]; 10 mM EDTA in the incubation buffer, gelatin, collagen and β-casein",suppressed zymographic activities
same,collagen-degradation,[1]; 10 mM EDTA in the reaction mixture,suppressed collagen-degradation
same,collagen contraction,[2],no collagen contraction
same,reactivity in zymography,"[3]; 10 mM EDTA included in the overnight incubation buffer, gelatin and monomeric collagen",Reactivity was lost
same,collagen breakdown,"[3]; 10 mM EDTA included in the reaction mixture, 1 mg rat tail monomeric collagen, 5 hours at 37° C.",no detectable collagen breakdown
CN1C(=O)N(C[C@H](C(=O)NO)[C@@H](CC2CCCC2)C(=O)N2CCCCC2)C(=O)C1(C)C [compound 52],IC50,[4],154 nM
same,IC50,[5],59 nM
aprotinin,collagen contraction,[6],not
